According to article PMC3847553, “Kinetic properties of “dual” orexin receptor antagonists at OX1R and OX2R orexin receptors” (Frontiers in Neuroscience, 2013):
Where two headings read alike, the source gives them in different places.

How the values were obtained:
human OX2R = molecular target: T1, human OX2R (Homo sapiens, UniProt O43614); assay: [3H]-BBAC competition binding over time, CHO-hOX2 membranes; settings: competition for 4.6 nM [3H]-BBAC, 15 min to 4 h, human OX2R
T1 construct: expressed in transfected cells; host or cells: CHO; cells from GNF, San Diego
T1 sequence (O43614 1-444): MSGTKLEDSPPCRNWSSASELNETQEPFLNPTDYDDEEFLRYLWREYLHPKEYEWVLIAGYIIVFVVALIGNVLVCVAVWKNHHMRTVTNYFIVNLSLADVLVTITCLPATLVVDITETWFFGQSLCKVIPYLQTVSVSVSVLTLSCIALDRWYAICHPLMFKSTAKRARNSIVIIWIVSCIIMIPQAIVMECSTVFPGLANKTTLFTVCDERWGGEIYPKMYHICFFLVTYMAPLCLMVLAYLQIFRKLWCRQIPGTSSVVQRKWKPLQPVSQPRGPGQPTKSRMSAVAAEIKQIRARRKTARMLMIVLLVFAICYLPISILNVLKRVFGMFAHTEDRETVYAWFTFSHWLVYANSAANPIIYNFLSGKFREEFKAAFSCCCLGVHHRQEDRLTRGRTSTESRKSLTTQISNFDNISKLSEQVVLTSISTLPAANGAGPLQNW
Excerpt: Chinese Hamster Ovary (CHO) cells stably transfected with the cDNA encoding the human OX1R (CHO-hOX1) or OX2R (CHO-hOX2) were used (kindly provided by T. Cremer and Dr. S. Geisse, NIBR Basel, Switzerland). For measurements of calcium accumulation using FLIPR® (Fluorescent Imaging Plate Reader) assay, CHO or Human Embryonic Kidney (HEK) cells stably expressing mouse, rat or human OX1R or OX2R (kindly provided by Dr. A. Chen, GNF, San Diego, CA, USA) were used. […] Cells were maintained in a humidified incubator at 37°C in 5% CO2. For crude cell membrane preparations, cells were washed and harvested in 10 mM HEPES (pH 7.5), and centrifuged at 4°C for 5 min at 2500 g. The cell pellet was either stored at −80°C or used directly.
Cell membranes were resuspended in binding assay buffer at 4°C (10 mM HEPES, pH 7.5, 0.5% (w/v) bovine serum albumin (BSA), 5 mM MgCl2, 1 mM CaCl2, and 0.05% Tween 20) and homogenized with a Polytron homogenizer at 50 Hz for 20 s. […] Radioactivity was quantified using a TopCount™ microplate counter (Perkin Elmer).
All data was analyzed using GraphPad Prism 4.0 (GraphPad, San Diego, USA). The saturation data was fit to a non-linear regression model for saturation binding with consideration for one site binding. […] Competition binding data was fit to a non-linear regression model for competition binding with consideration for variable one site binding with a non-fixed Hill slope.

mouse OX1R = molecular target: T2, mouse OX1R (Mus musculus, UniProt P58307); assay: FLIPR orexin A-stimulated calcium accumulation, mouse OX1R; type: cell-based; settings: HEK cells
T2 construct: expressed in transfected cells; host or cells: HEK; cells from GNF, San Diego
T2 sequence (P58307 1-416): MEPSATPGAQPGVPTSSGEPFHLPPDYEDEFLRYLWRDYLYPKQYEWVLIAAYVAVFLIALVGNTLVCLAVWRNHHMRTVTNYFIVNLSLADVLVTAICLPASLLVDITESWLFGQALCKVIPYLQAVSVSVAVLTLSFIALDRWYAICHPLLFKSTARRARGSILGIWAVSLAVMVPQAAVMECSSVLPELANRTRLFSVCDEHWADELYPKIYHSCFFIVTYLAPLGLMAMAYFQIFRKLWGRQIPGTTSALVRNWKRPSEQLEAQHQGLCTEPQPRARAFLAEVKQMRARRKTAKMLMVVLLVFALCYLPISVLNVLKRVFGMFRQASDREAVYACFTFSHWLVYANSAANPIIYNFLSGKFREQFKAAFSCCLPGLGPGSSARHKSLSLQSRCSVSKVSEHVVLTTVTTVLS
Method: Chinese Hamster Ovary (CHO) cells stably transfected with the cDNA encoding the human OX1R (CHO-hOX1) or OX2R (CHO-hOX2) were used (kindly provided by T. Cremer and Dr. S. Geisse, NIBR Basel, Switzerland). For measurements of calcium accumulation using FLIPR® (Fluorescent Imaging Plate Reader) assay, CHO or Human Embryonic Kidney (HEK) cells stably expressing mouse, rat or human OX1R or OX2R (kindly provided by Dr. A. Chen, GNF, San Diego, CA, USA) were used. All cells were cultured in 1:1 Dulbecco's Modified Eagle's Medium (DMEM)/Ham's F12 Nutrients Mixture (F12) supplemented with 10% (v/v) fetal bovine serum (FBS), […] (100 μg/ml), Fungizone (250 μg/ml), and Geneticin (G418, […]). Cells were maintained in a humidified incubator at 37°C in 5% CO2. For crude cell membrane preparations, cells were washed and harvested in 10 mM HEPES (pH 7.5), and centrifuged at 4°C for 5 min at 2500 g. The cell pellet was either stored at −80°C or used directly.
Cells expressing either human, rat or mouse OX1R or OX2R were seeded at 8,000 cells/well in black 384 well clear bottom plates and incubated overnight at 37°C. The following day, medium was discarded and cells loaded with 50 μ l of 1 mM Fluo-4 AM (Invitrogen F14202) in dimethyl sulfoxide in working buffer (Hanks' balanced salt solution, 10 mM HEPES) and incubated for 60 min at 37°C. The loading buffer was removed and cells were washed with 100 μ l working buffer containing […], 0.1% BSA, and 2.5 mM Probenecid (pH 7.4) to remove the excess Fluo-4 AM. […] The assay plate was then transferred to the Molecular Devices-FLIPR384. The baseline calcium signal was recorded for 10 s, then the antagonist of interest was injected (10 μl at 3 times the final concentration) and the calcium signal recorded every second for 1 min, then every 2 s 40 times. Plates were then incubated at room temperature for 30 min, 1, 2, or 4 h.

[1] = pKi, antagonist incubation 30 min
[2] = antagonist incubation 30 min, read-out: pKi (converted)
[3] = antagonist incubation 1 h, read-out: pKi (converted)
[4] = antagonist incubation 2 h, read-out: pKi (converted)
[5] = antagonist incubation 4 h, read-out: pKi (converted)

Compound: CNC(=O)[C@@H](c1ccccc1)N1CCc2cc(OC)c(OC)cc2[C@@H]1CCc1ccc(C(F)(F)F)cc1 [Almorexant]
- effect of incubation time on competition curves (human OX2R): substantially
- Ki (mouse OX1R; [1]): 18.6 nM
- Ki (mouse OX1R; pKi, antagonist incubation 1 h): 23.4 nM
- Ki (mouse OX1R; pKi, antagonist incubation 2 h): 33.9 nM
- Ki (mouse OX1R; pKi, antagonist incubation 4 h): 38.9 nM

Compound: Cc1ccc(-c2ncccn2)c(C(=O)N2C[C@H](COc3ccc(F)cn3)CC[C@H]2C)c1 [Filorexant]
- effect of incubation time on competition curves (human OX2R): shifted to the left over time, even up to 4 h
- Ki (mouse OX1R; [2]): 5.25 nM
- Ki (mouse OX1R; [3]): 4.07 nM
- Ki (mouse OX1R; [4]): 6.61 nM
- Ki (mouse OX1R; [5]): 5.89 nM

Compound: COc1ccnc(N2CCC3(CCCN(Cc4c[nH]c5ccccc45)C3=O)CC2)n1 [IPSU, 2-((1H-Indol-3-yl)methyl)-9-(4-methoxypyrimidin-2-yl)-2,9-diazaspiro[5.5]undecan-1-one]
- effect of incubation time on competition curves (human OX2R): do not show time-dependency
- Ki (mouse OX1R; [2]): 331 nM
- Ki (mouse OX1R; [3]): 490 nM
- Ki (mouse OX1R; [4]): 288 nM
- Ki (mouse OX1R; [5]): 324 nM

Compound: Cc1nc(C(=O)N2CCCC[C@H]2CNC(=O)c2cccc3occc23)c(-c2ccc(F)cc2)s1 [SB-649868]
- effect of incubation time on competition curves (human OX2R): binding appeared to be rather stable
- Ki (mouse OX1R; [2]): 0.158 nM
- Ki (mouse OX1R; [3]): 0.427 nM
- Ki (mouse OX1R; [4]): 0.0407 nM
- Ki (mouse OX1R; [5]): 0.0468 nM

Compound: Cc1ccc(-n2nccn2)c(C(=O)N2CCN(c3nc4cc(Cl)ccc4o3)CC[C@H]2C)c1 [Suvorexant]
- effect of incubation time on competition curves (human OX2R): shifted to the left over time
- Ki (mouse OX1R; [1]): 1.26 nM
- Ki (mouse OX1R; pKi, antagonist incubation 1 h): 1.05 nM
- Ki (mouse OX1R; pKi, antagonist incubation 2 h): 0.933 nM
- Ki (mouse OX1R; pKi, antagonist incubation 4 h): 1.02 nM
